Measured values from patent publication US20230103791A1 (GLAXOSMITHKLINE INTELLECTUAL PROPERTY DEVELOPMENT LIMITED, priority 2019, published 2023).

The compounds below were run against T1, human Nav1.8 (Homo sapiens, UniProt Q9Y5Y9) (assay: Nav1.8 sodium channels assay, QPatch 48 HTX electrophysiology in HEK293-Nav1.8 cells). Details: at least one set of experimental runs; read-out: average pIC50 value against Nav1.8 (converted).
T1 construct: expressed in transfected cells; host or cells: HEK293 (HEK293-Nav1.8)
Type: cell-based
Procedure: Human embryonic kidney […] cells (HEK293) expressing human Nav1.8, human Navβ1 and human TREK1 (HEK293-Nav1.8) were grown at 37° C., 5% CO2 in 150 cm^2 flasks. HEK293-Nav1.8 were passaged every 2-3 days when confluency reached 80-90% in to T175 cell culture flasks.
Pharmacological assessment of the invention was performed using HEK293-Nav1.8 in combination with an assay developed on the QPatch 48 HTX electrophysiological system. HEK293-Nav1.8 were prepared on the day of use by removing culture media, washing in DPBS, adding Accutase (2 ml to cover the surface, aspirate 1 ml then 1.5 min at 37° C.) followed by addition of CHO-SFM II to stop the enzyme digestion and in order to obtain a suspension of 3×10^6 cell/mL.
The invention was prepared in an extracellular solution of the following composition (in mM) NaCl 145, KCl 4, CaCl2 2, MgCl 2, HEPES 1, Glucose 10, pH 7.4 with NaOH Osmolality 300 mOsM/L. The intracellular solution was used of the following composition (in mM) CsF 115, CsCl 20, NaCl 5, EGTA 10, HEPES 10, Sucrose 20, pH 7.2 with CsOH Osmolality 310 mOsm/L.
Utilizing the voltage-clamp mode in the QPatch 48 HTX system a half inactivation state voltage protocol (V1/2) was used to determine pharmacological activity of the invention at Nav1.8 ion channels. A V1/2 protocol was utilized with the following voltage steps: a holding voltage of −100 mV was established followed by a 20 ms voltage step to 0 mV (P1), followed by an inactivating voltage step at −46 mV for 8 seconds, followed by a step to −100 mV for 20 ms, before a 20 ms step to 0 mV (P2) before returning to the holding voltage of −100 mV. This voltage protocol was repeated at a frequency of 0.07 Hz., current magnitude was quantified at the P2 step throughout the recording. Inhibition of the measured current amplitude with the invention was analyzed by fitting a 6-8 point dose-response curve allowing determination of the fifty percent inhibition concentration (IC50). Within the QPatch HTX software, P2 current was normalized according to measurements made at baseline after compound and after positive reference compound and fit to the following equation: […]
To assess current run-down over the course of the experiment vehicle-only wells were utilized and the normalized current with vehicle-only (n.IVEH) was determined. To correct the compound response for run-down, the currents were correct according the following formula: […]
Compounds of the invention are tested for activity against Nav1. 8 sodium channels in the above assay.

T1 sequence (Q9Y5Y9 whole entry): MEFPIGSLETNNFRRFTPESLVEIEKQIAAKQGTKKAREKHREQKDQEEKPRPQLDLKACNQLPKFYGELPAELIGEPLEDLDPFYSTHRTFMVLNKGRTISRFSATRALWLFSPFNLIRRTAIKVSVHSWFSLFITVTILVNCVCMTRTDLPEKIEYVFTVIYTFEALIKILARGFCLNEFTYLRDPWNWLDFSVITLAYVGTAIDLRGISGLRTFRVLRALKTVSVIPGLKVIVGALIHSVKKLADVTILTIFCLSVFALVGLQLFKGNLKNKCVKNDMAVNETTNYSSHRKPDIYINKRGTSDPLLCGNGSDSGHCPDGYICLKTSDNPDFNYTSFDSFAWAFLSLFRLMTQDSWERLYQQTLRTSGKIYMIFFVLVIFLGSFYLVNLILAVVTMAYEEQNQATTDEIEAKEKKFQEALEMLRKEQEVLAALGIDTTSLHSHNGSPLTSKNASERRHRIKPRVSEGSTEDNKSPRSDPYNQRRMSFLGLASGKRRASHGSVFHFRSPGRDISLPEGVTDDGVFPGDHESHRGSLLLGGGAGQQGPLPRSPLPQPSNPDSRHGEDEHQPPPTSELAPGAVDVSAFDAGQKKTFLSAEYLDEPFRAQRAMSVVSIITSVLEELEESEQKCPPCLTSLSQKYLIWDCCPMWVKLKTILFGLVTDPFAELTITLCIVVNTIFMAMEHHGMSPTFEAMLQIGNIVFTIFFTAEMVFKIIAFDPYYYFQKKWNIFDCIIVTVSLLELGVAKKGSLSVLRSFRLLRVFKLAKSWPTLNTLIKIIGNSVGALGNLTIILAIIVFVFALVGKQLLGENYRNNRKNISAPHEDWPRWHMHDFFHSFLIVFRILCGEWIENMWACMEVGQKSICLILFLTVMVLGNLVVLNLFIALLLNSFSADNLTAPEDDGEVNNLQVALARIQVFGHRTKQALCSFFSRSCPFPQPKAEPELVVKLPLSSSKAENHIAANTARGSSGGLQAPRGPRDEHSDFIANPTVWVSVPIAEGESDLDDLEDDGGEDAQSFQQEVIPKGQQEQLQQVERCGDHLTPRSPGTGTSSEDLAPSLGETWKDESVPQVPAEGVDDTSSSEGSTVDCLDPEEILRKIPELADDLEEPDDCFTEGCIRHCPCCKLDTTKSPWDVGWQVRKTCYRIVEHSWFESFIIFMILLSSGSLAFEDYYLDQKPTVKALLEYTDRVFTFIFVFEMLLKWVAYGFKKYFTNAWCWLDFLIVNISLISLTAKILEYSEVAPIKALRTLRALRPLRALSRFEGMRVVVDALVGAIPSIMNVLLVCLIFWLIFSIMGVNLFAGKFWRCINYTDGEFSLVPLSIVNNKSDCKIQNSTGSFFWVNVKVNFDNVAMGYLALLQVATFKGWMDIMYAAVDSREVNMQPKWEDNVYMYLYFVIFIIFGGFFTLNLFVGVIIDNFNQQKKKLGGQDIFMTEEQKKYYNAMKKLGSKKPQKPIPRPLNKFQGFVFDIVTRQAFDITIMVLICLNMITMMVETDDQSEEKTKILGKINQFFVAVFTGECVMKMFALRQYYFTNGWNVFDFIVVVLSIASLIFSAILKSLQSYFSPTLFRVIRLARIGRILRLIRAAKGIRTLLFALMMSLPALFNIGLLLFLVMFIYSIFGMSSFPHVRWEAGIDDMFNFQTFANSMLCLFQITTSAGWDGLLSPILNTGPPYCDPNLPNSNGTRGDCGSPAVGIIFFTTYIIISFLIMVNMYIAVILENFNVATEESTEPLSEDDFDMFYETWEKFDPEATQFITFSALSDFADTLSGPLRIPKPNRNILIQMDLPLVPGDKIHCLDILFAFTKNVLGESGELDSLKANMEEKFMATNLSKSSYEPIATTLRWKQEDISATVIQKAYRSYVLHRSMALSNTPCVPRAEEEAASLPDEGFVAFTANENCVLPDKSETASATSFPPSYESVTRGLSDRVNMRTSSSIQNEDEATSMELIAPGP
T1 sequence (Q07699 19-218 partner): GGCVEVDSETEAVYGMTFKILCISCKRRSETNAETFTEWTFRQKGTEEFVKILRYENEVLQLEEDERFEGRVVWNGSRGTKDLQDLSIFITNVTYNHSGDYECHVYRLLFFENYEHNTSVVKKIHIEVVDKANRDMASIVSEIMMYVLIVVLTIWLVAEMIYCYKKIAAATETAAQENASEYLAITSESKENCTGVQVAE

`Cc1cc(F)ccc1N1CN(c2ccc(=O)[nH]c2)C(=O)c2ccc(C(F)(F)F)c(C)c21` [Example 45, 1-(4-fluoro-2-methylphenyl)-8-methyl-3-(6-oxo-1,6-dihydropyridin-3-yl)-7-(trifluoromethyl)-2,3-dihydroquinazolin-4(1H)-one] and `Cc1cc(N2CN(c3ccc(F)cc3C)c3cc(C(F)(F)F)ccc3C2=O)cc(=O)[nH]1` [Example 53, 1-(4-fluoro-2-methylphenyl)-3-(6-methyl-2-oxo-1,2-dihydropyridin-4-yl)-7-(trifluoromethyl)-2,3-dihydroquinazolin-4(1H)-one] fall in the same range of IC50: 794 to 7940 nM for the first, 794 to 7940 nM for the second.

First: Cc1ncccc1N1CN(c2ccc(=O)[nH]c2C)C(=O)c2ccc(C(F)(F)F)cc21 [Example 46, 3-(2-methyl-6-oxo-1,6-dihydropyridin-3-yl)-1-(2-methylpyridin-3-yl)-7-(trifluoromethyl)-2,3-dihydroquinazolin-4(1H)-one]
Second: Cc1[nH]c(=O)ccc1N1CN(c2ccc(F)cc2C(C)C)c2cc(C(F)(F)F)ccc2C1=O [Example 47, 1-(4-fluoro-2-isopropylphenyl)-3-(2-methyl-6-oxo-1,6-dihydropyridin-3-yl)-7-(trifluoromethyl)-2,3-dihydroquinazolin-4(1H)-one]
The IC50 of the first is higher: 794 to 7940 nM for the first, no more than 100 nM for the second.

`Cc1cc(F)ccc1N1CN(c2ccc(=O)[nH]c2C)C(=O)c2cc(Cl)ccc21` [Example 48, 6-chloro-1-(4-fluoro-2-methylphenyl)-3-(2-methyl-6-oxo-1,6-dihydropyridin-3-yl)-2,3-dihydroquinazolin-4(1H)-one] and `Cc1cc(F)ccc1N1CN(c2ccc(=O)[nH]c2C)C(=O)c2ccc(Cl)cc21` [Example 66, 7-chloro-1-(4-fluoro-2-methylphenyl)-3-(2-methyl-6-oxo-1,6-dihydropyridin-3-yl)-2,3-dihydroquinazolin-4(1H)-one] cannot be ordered by IC50: no more than 100 nM for the first, no more than 100 nM for the second.

Compared with `Cc1[nH]c(=O)ccc1N1CN(c2ccc(F)cc2)c2ccccc2C1=O` [Example 49, 1-(4-fluorophenyl)-3-(2-methyl-6-oxo-1,6-dihydropyridin-3-yl)-2,3-dihydroquinazolin-4(1H)-one], `Cc1cc(F)ccc1N1CN(c2ccc(=O)[nH]c2C)C(=O)c2ccccc21` [Example 52, 1-(4-fluoro-2-methylphenyl)-3-(2-methyl-6-oxo-1,6-dihydropyridin-3-yl)-2,3-dihydroquinazolin-4(1H)-one] is lower in IC50: 794 to 7940 nM for the first, no more than 100 nM for the second.

First: Cc1ccccc1N1CN(c2ccc(=O)[nH]c2C)C(=O)c2ccccc21 [Example 50, 3-(2-methyl-6-oxo-1,6-dihydropyridin-3-yl)-1-(o-tolyl)-2,3-dihydroquinazolin-4(1H)-one]
Second: Cc1ccc2c(c1)C(=O)N(c1ccc(=O)[nH]c1C)CN2c1ccc(F)cc1C [Example 51, 1-(4-f1uoro-2-methylphenyl)-6-methyl-3-(2-methyl-6-oxo-1,6-dihydropyridin-3-yl)-2,3-dihydroquinazolin-4(1H)-one]
The IC50 of the first is higher: 126 to 631 nM for the first, no more than 100 nM for the second.

`Cc1c[nH]c(=O)cc1N1CN(c2ccc(F)cc2C)c2cc(C(F)(F)F)ccc2C1=O` [Example 54, 1-(4-fluoro-2-methylphenyl)-3-(5-methyl-2-oxo-1,2-dihydropyridin-4-yl)-7-(trifluoromethyl)-2,3-dihydroquinazolin-4(1H)-one] and `Cc1cc(F)ccc1N1CN(c2cc[nH]c(=O)c2C)C(=O)c2ccc(C(F)(F)F)cc21` [Example 55, 1-(4-fluoro-2-methylphenyl)-3-(3-methyl-2-oxo-1,2-dihydropyridin-4-yl)-7-(trifluoromethyl)-2,3-dihydroquinazolin-4(1H)-one] fall in the same range of IC50: 794 to 7940 nM for the first, 794 to 7940 nM for the second.

`Cc1cc(F)ccc1N1CN(c2ccc(=O)[nH]c2C)C(=O)c2ccc(OC(F)(F)F)cc21` [Example 56, 1-(4-fluoro-2-methylphenyl)-3-(2-methyl-6-oxo-1,6-dihydropyridin-3-yl)-7-(trifluoromethoxy)-2,3-dihydroquinazolin-4(1H)-one] and `Cc1ccc2c(c1)N(c1ccc(F)cc1C)CN(c1ccc(=O)[nH]c1C)C2=O` [Example 57, 1-(4-fluoro-2-methylphenyl)-7-methyl-3-(2-methyl-6-oxo-1,6-dihydropyridin-3-yl)-2,3-dihydroquinazolin-4(1H)-one] cannot be ordered by IC50: no more than 100 nM for the first, no more than 100 nM for the second.

Compared with `Cc1cc(F)ccc1N1CN(c2ncc(=O)[nH]c2C)C(=O)c2ccc(C(F)(F)F)cc21` [Example 58, 1-(4-fluoro-2-methylphenyl)-3-(3-methyl-5-oxo-4,5-dihydropyrazin-2-yl)-7-(trifluoromethyl)-2,3-dihydroquinazolin-4(1H)-one], `Cc1cc(F)ccc1N1CN(c2cc(=O)[nH]c(=O)[nH]2)C(=O)c2ccc(C(F)(F)F)cc21` [Example 59, 6-(1-(4-fluoro-2-methylphenyl)-4-oxo-7-(trifluoromethyl)-1,4-dihydroquinazolin-3(2H)-yl)pyrimidine-2,4(1H,3H)-dione] is higher in IC50: 126 to 631 nM for the first, 794 to 7940 nM for the second.

`CCc1cc(F)ccc1N1CN(c2ccc(=O)[nH]c2C)C(=O)c2cc(C(F)(F)F)ccc21` [Example 60, 1-(2-ethyl-4-fluorophenyl)-3-(2-methyl-6-oxo-1,6-dihydropyridin-3-yl)-6-(trifluoromethyl)-2,3-dihydroquinazolin-4(1H)-one] and `CCc1[nH]c(=O)ccc1N1CN(c2ccc(F)cc2C)c2ccc(C(F)(F)F)cc2C1=O` [Example 64, 3-(2-ethyl-6-oxo-1,6-dihydropyridin-3-yl)-1-(4-fluoro-2-methylphenyl)-6-(trifluoromethyl)-2,3-dihydroquinazolin-4(1H)-one] cannot be ordered by IC50: no more than 100 nM for the first, no more than 100 nM for the second.

`Cc1cc(F)ccc1N1CN(c2c[nH]c(=O)nc2C)C(=O)c2cc(Cl)ccc21` [Example 61, 6-chloro-1-(4-fluoro-2-methylphenyl)-3-(4-methyl-2-oxo-1,2-dihydropyrimidin-5-yl)-2,3-dihydroquinazolin-4(1H)-one] and `Cc1cc(F)ccc1N1CN(c2ccc(=O)[nH]c2C)C(=O)c2cc(Cl)c(C)nc21` [Example 72, 6-chloro-1-(4-fluoro-2-methylphenyl)-7-methyl-3-(2-methyl-6-oxo-1,6-dihydropyridin-3-yl)-2,3-dihydropyrido[2,3-d]pyrimidin-4(1H)-one] cannot be ordered by IC50: no more than 100 nM for the first, no more than 100 nM for the second.

First: Cc1cc(=O)[nH]c(C)c1N1CN(c2ccc(F)cc2C(C)C)c2cc(C(F)(F)F)ccc2C1=O [Example 62, 3-(2,4-dimethyl-6-oxo-1,6-dihydropyridin-3-yl)-1-(4-fluoro-2-isopropylphenyl)-7-(trifluoromethyl)-2,3-dihydroquinazolin-4(1H)-one]
Second: Cc1[nH]c(=O)ccc1N1CN(c2ccc(F)cc2C(C)C)c2ncc(C(F)(F)F)cc2C1=O [Example 63]
The IC50 of the first is higher: 794 to 7940 nM for the first, no more than 100 nM for the second.

First: Cc1cc(F)ccc1N1CN(c2ccc(=O)[nH]c2C)C(=O)c2ccc(N(C)C)cc21 [Example 65, 7-(dimethylamino)-1-(4-fluoro-2-methylphenyl)-3-(2-methyl-6-oxo-1,6-dihydropyridin-3-yl)-2,3-dihydroquinazolin-4(1H)-one]
Second: CNc1ccc2c(c1)N(c1ccc(F)cc1C)CN(c1ccc(=O)[nH]c1C)C2=O [Example 67, 1-(4-fluoro-2-methylphenyl)-3-(2-methyl-6-oxo-1,6-dihydropyridin-3-yl)-7-(methylamino)-2,3-dihydroquinazolin-4(1H)-one]
The IC50 of the first is lower: no more than 100 nM for the first, 126 to 631 nM for the second.

Compared with `CCOc1cc(F)ccc1N1CN(c2ccc(=O)[nH]c2C)C(=O)c2cc(Cl)ccc21` [Example 68, 6-chloro-1-(2-ethoxy-4-fluorophenyl)-3-(2-methyl-6-oxo-1,6-dihydropyridin-3-yl)-2,3-dihydroquinazolin-4(1H)-one], `Cc1cc(F)ccc1N1CN(c2ccc(=O)[nH]c2C)C(=O)c2cc(F)c(C(F)F)cc21` [Example 70, 7-(difluoromethyl)-6-fluoro-1-(4-fluoro-2-methylphenyl)-3-(2-methyl-6-oxo-1,6-dihydropyridin-3-yl)-2,3-dihydroquinazolin-4(1H)-one] is lower in IC50: 126 to 631 nM for the first, no more than 100 nM for the second.

First: Cc1ccc2c(c1)N(c1ccc(F)cc1C(C)C)CN(c1ccc(=O)[nH]c1C)C2=O [Example 69, 1-(4-fluoro-2-isopropylphenyl)-7-methyl-3-(2-methyl-6-oxo-1,6-dihydropyridin-3-yl)-2,3-dihydroquinazolin-4(1H)-one]
Second: Cc1cc(F)ccc1N1CN(c2ccc(=O)[nH]c2C)C(=O)c2cc(F)c(C)nc21 [Example 71, 6-fluoro-1-(4-fluoro-2-methylphenyl)-7-methyl-3-(2-methyl-6-oxo-1,6-dihydropyridin-3-yl)-2,3-dihydropyrido[2,3-d]pyrimidin-4(1H)-one]
The IC50 of the first is lower: no more than 100 nM for the first, 126 to 631 nM for the second.
